Measurements reported in patent US20250352555A1, “METHOD OF INCREASING IMMUNE CELL ACTIVATION AND/OR TREATING CANCER USING DIBENZOXAZEPINONES” (VASCULAR THERAPEUTICS PTY LTD, priority 2022, published 2025).
Several values for one entry are separate records, joined by “and”; a condition that tells them apart may be missing. Equal entries are not always repeated.

Experiments:
[1] = test system: IFN-γ; test: Mouse serum IFN-γ levels by ELISA; assay type: in vivo; details: B16F10 tumor-bearing mice Day 17, 200 mg/kg i.p., vs vehicle
Method: Mouse serum IFN-γ levels. Whole blood was collected from Day 17 mice and spun at 1500 g for 10 min at 4° C. Serum was extracted from the top layer and stored at −80° C. IFN-γ levels were measured using the mouse IFN-γ (Improved) ELISA kit (Invitrogen, cat. no. KMC4021) according to the manufacturer's protocol, with absorbance being read at 450 nm. GraphPad Prism 9 software was used to generate the standard curve. IFN-γ levels in mouse serum were measured alongside the standard curve by using GraphPad Prism 9.
IFN-γ is a biomarker of cellular immunity and the antitumor immune response. Elevated IFN-γ is associated with a systemic immune response in cancer patients and tumor-bearing mice after immune checkpoint therapy. Since IFN-γ is produced by T cells, levels of IFN-γ in the sera of tumor-bearing mice treated with vehicle or BT2 were determined.

[2] = test system: CD68; test: Immunohistochemistry of B16F10 tumors (Day 17), CD68; assay type: in vivo, mouse; details: B16F10 tumors Day 17, 200 mg/kg i.p.
Excerpt: Immunohistochemical staining and analyses. Rabbit monoclonal anti-CD3 (cat. no. ab16669; mouse, rat and human reactive), rabbit monoclonal anti-PD-1 (cat. no. ab214421), rabbit monoclonal anti-CD68 (cat. no. ab125212) antibodies were obtained from Abcam, rabbit monoclonal anti-phospho-ERK (Thr^202/Tyr^204) (cat. no. CST4370), rabbit monoclonal total ERK (cat. no. CST4695), antibodies were obtained from Cell Signaling Technology. Rabbit polyclonal anti-PD-L1 (cat. no. PA5-20343) antibody was obtained from ThermoFisher.
Formalin fixed, paraffin embedded sections were prepared from tumors. Heat-induced epitope retrieval was applied to all deparaffinized sections (4 μm sections on Superfrost slides) with citrate buffer, pH 6.0 for 5 min at 110° C. Sections were blocked with Dual Endogenous Enzyme Block (DAKO, S2003) for 10 min and then with 2% skim milk for 20 min. […] Integrated optical density (IOD) or area of positive staining (red chromagen) was assessed using Image-Pro Plus software (Cybernetics, Bethesda, MD, USA). Positive staining was the average of quantitation in 4-8 fields of view under 20× or 40× objectives.
Immunohistochemical analysis was performed on B16F10 tumors (Day 17) from BT2- or vehicle-treated mice with antibodies to CD68. IOD and tissue area were assessed using Image-Pro Plus and the IOD/μm^2 was determined.

[3] = Serum BT2 concentration by LC-MS in B16F10 tumor-bearing mice; assay type: in vivo; details: mouse, intraperitoneal, Day 17, 200 mg/kg i.p., C57BL/6J mice
Method: Mass spectrometry. Proteins in serum (50 μl) were precipitated by diluting with acetone (150 μl). The mixture was left for 14 h at 4° C. and protein was pelleted by centrifugation (10 min at 14,000 g) and supernatant removed. The solution (10 μl) was diluted into 40 μl Buffer A (H2O (0.1% formic acid)) for MS analysis. BT2 standard was prepared by diluting stock suspension of BT2 ([…], 30 mg/ml) in Buffer A (990 μl) then diluting 10 μl of this in 990 μl followed by another 1 in 100 dilution. […] LC-MS was performed using a Thermo QExactive HF, Gold C18 column (50×2.1 mm) with Solvent A (H2O (0.1% formic acid) and Solvent B (H2O:CH3CN 20:80 (0.1% formic acid) with gradient T=0, 1% B, T=26 min, 100% B, T=27 min, 100%, T=27.1, 1% B, T=30 min, 1% B; column temperature 45° C. MS1 scan, m/z 140-800, 3×10^6 ions, max IT 25 msec, resolution 120,000 and Top 5 MS2 (2×10^5 ions, max IT 50 msec, resolution 30,000 and HCD 20, 30 50V). Extracted ion chromatograms (m/z 327.134±5 ppm) were obtained for blanks, standards and samples and integrated peak areas calculated and compared).
To assess the effect of BT2 in the same model, C57BL/6J mice bearing s.c. B16F10 tumors were administered with BT2 or vehicle (200 mg/kg or 20 ml/kg, respectively, i.p.) once a day on a 5 days-on/2 days-off schedule. Treatment commenced on Day 5 (FIG. 9A). […]

[4] = test system: MeWo cells; test: Cell morphology study, MeWo; assay type: cell-based, human; details: 1 μM, 24 h
Method: Cell morphology studies. Cells were grown in medium containing 10% FBS in 4-well chamber slides. The following day the cells were incubated in medium containing 10% FBS and vehicle, BT2 or SCH772984 at 1 μM for 24 h, then fixed with 4% paraformaldehyde solution for 15 min. After washing briefly in PBS the cells were stained with hemotoxylin and eosin. The slides were scanned using an Aperio ScanScope XT slide scanner (Leica Biosystems, Mt Waverley, Vic, Australia) and images were captured using ImageScope software (Leica Biosystems).
The morphology of A375 and MeWo cells exposed to 1 μM of BT2 or SCH772984 for 24 h was also assessed.

- concentration at 17 day [3]: 4000 ng/mL and 12.3 µM
SMILES: CCOC(=O)Nc1ccc2c(c1)C(=O)N(CC)c1ccccc1O2 [BT2, (10-ethyl-11-oxo-10,11-dihydro-dibenzo[b,f][1,4]oxazepin-2-yl)-carbamic acid ethyl ester]
- circulating (serum) IFN-γ levels [1]: elevated
- CD68 levels in the tumors (IHC) [2]: reduced levels of CD68
- cell morphology [4]: loss of spindle morphology and cell rounding
